{
  "source": "paper PMC12259270",
  "about": "“Sensory neuron–expressed FGF13 controls nociceptive signaling in diabetic neuropathy models” (The Journal of Clinical Investigation, 2025)",
  "key": {"C57BL/6 mice": {"system": "C57BL/6 mice", "assay": "Mechanical sensitivity (von Frey, LVF/HVF) after intraplantar injection, mice without capsaicin", "type": "in vivo, mouse", "set-up": "key to LVF Mean / HVF Mean: % withdrawals from 10 consecutive von Frey stimulations", "conditions": "for HVF Mean / LVF Mean: without capsaicin", "method": "Experiments were performed on 6- to 12-week-old male C57BL/6 mice (The Jackson Laboratory, Bar Harbor, ME) housed in the AAALAC-accredited facility at the University of Texas Medical Branch. Mice were group-housed with up to 5 mice per cage on a 12-to-12-hour light–dark cycle and had access to water and food ad libitum. All protocols were approved by the Institutional Animal Care and Use Committee (IACUC) at the University of Texas Medical Branch and in accordance with the National Institutes of Health (NIH) guidelines.\nPW164 and ZL192 were dissolved in DMSO and saline in a ratio of 1:10. 0.1% capsaicin (10% ethanol, 10% Tween-20 in saline; Sigma-Aldrich). All the compounds were injected at the center of the hind paw. The control group received a DMSO-saline mixture. […]\nAssessment of mechanical sensitivity\nMechanical sensitivity was assessed using von Frey filaments (VFF 0.1g and 1.0 g force) in mice that were either naïve or received intraplantar (i.p.) injection of capsaicin. VFFs were applied at the injection site (capsaicin or drug unilateral intraderma l injection at the center of the hind paw using a 30 -G needle). VFF of 1.0 g force, which evokes a 40–60% withdrawal response in the naïve condition, was used to detect hyperalgesia, and VFF of 0.1 g […]\nmechanical sensitivity was expressed as % withdrawals from 10 consecutive stimulations. […]"}, "[1]": {"system": "donor-derived DRG neurons", "assay": "Whole-cell current-clamp, human donor-derived DRG neurons", "type": "cell-based", "from_the_text": "Human donor (hDRG) neurons. Dorsal root ganglia were recovered from consented, de-identified organ and tissue donors at the University of Cincinnati Medical Center following previously described protocols (57, 58). Recovered tissues were transported in oxygenated, ice-cold N-methyl-D-glucamine (NMDG) artificial […] (aCSF, mM): 93 NMDG, 2.5 KCl, 1.25 NaH2PO4, 30 NaHCO3, 20 HEPES, 25 Glucose, 5 Ascorbic acid, 2 Thiourea, 3 Na+ pyruvate, 10 MgSO4, 0.5 CaCl2, 12 N-acetylcysteine, adjusted to pH 7.4 with HCl). hDRGs were isolated from connective tissue, fat, roots, and nerves and then minced into small 1-3 mm pieces which were enzymatically treated with warmed papain (45U) followed by collagenase (4.5 mg/200µl) each for 40 minutes at 37 °C, 5% CO2 in HBSS with 5 mM HEPES (Hanks’ Balanced Salt Solution with 4-2 (2-hydrozyethyl)-1-piperazineethananessulfonic acid; Gibco). Neurons were dissociated by trituration and incubated in warmed Neurobasal A-based DRG media (with penicillin/streptomycin, B27 supplement (Gibco), fetal bovine serum (FBS), and GlutaMAX (Gibco, cat # 35050061), as previously described. Dissociated DRG suspension was plated onto poly-d-lysine (0.01 mg/ml, Sigma) and collagen (1 mg/ml, Sigma) coated coverslips and incubated 2 days. […]\nfollowing salts: extracellular (mM): 140 NaCl, 3 KCl, 1 MgCl2, 1 CaCl2, 10 HEPES, 10 glucose, pH 7.3; intracellular (mM): 130 CH3O3 SCs, 1 EGTA, 10 NaCl, 10 HEPES, pH 7.3. Membrane capacitance and series resistance were estimated by the dial settings on the amplifier and compensated for electronically by 70–80%.\nData was acquired at 20 kHz and filtered at 5 kHz before digitization and storage. All experimental parameters were controlled by Clampex 9.2 software (Molecular Devices) and interfaced to the electrophysiological equipment using a Digidata 1300 analog–digital interface (Molecular Devices). […]\nμM PW164 or ZL192 in the extracellular solution. The recording solution consisted of the following salts: extracellular (mM): 130 NaCl, 3 KCl, 30 TEA, 0.1 CdCl2 1 MgCl2, 1 CaCl2, 10 HEPES, 10 glucose, pH 7.3; intracellular (mM): 140 CsF, 1.1 EGTA, 10 NaCl, 10 HEPES, pH 7.3.\nHuman donor DRG neurons: Coverslips were transferred to a recording chamber and bathed in extracellular solution (mM): 145 NaCl, 3 KCl, 2.5 CaCl2, 1.2 MgCl2, 10 HEPES, 7 glucose, 0.05 CdCl2 adjusted to pH 7.4 with NaOH, with a flow rate of 1-2 ml/min. Borosilicate glass pipettes with the resistance of 1.5 to 2.5 MΩ were made using a P-1000 micropipette puller (Sutter Instrument, Novato, CA, USA). The intracellular solution contained (mM): 130 K-gluconate, 5 KCl, 5 NaCl, 2 MgCl2, 0.3 Ethylene glycol-bis(2-aminoethylether)- NNN’N’-tetraacetic acid (EGTA), 10 HEPES, 2 Na ATP, adjusted to pH 7.3 with KOH and 294 mOsm with sucrose. Coverslips were pre-incubated in 50 µM PW164 or ZL192 or 0.1% DMSO vehicle for 1 hour before recording. Recordings were obtained on MultiClamp 700B and Digidata 1550A (Molecular Devices) and sampled […]\nat 20 kHz. Neurons were investigated if resting membrane potential was below -45 mV. Neurons were held under current clamp, and membrane properties and action potential discharge were assessed as previously described […]\nHuman Dorsal Root Ganglia Procurement\nHuman dorsal root ganglia (DRGs) procurement procedures were performed in accordance with the Institutional Review Boards at the University of Texas at Dallas. DRGs were procured from organ donors through a collaboration with the Southwest Transplant Alliance (STA). DRGs were frozen in powdered dry ice at the time of extraction and then stored in a -80°C freezer until use. Details on tissue procurement procedures, quality metrics, and tissue preparation can be found on protocols.io doi:10.17504/protocols.io.kqdg32qr1v25/v1 (2024).\nThe medical history of each donor was provided by the STA and is a summary of information from hospital records and family members. Donor demographics, condition (non-diabetic vs diabetic painful neuropathy […]"}, "[2]": {"conditions": "50 µM, 1 hour preincubation, relative to control"}},
  "note": "Several values for one entry are separate records, joined by “and”; a condition that tells them apart may be missing. Identical values can stand only once. Residues, ends and D or L forms follow the SMILES beside them. *: point of attachment. Cbz = O=C(OCc1ccccc1)*; NHPh = c1ccc(N*)cc1; OtBu = CC(C)(C)O*",
  "data": [
    {"molecule": "COC(=O)[C@@H](NC(=O)[C@H](CCC(=O)OC(C)(C)C)NC(=O)[C@H](CC(C)C)NC(=O)[C@@H]1CCCN1C(=O)OCc1ccccc1)C(C)C", "note": "[PW164] (Cbz-PLE(OtBu)V-OMe)", "values": [
      {"measurement": "HVF Mean", "setting": "C57BL/6 mice; PW164 0.07mg/mL, Time (h) 0", "value": 50},
      {"measurement": "LVF Mean", "setting": "C57BL/6 mice; PW164 0.07mg/mL, Time (h) 0", "value": 0},
      {"measurement": "HVF Mean", "setting": "C57BL/6 mice; PW164 0.07mg/mL, Time (h) 0.5", "value": 50},
      {"measurement": "LVF Mean", "setting": "C57BL/6 mice; PW164 0.07mg/mL, Time (h) 0.5", "value": 0},
      {"measurement": "HVF Mean", "setting": "C57BL/6 mice; PW164 0.07mg/mL, Time (h) 1", "value": 55},
      {"measurement": "LVF Mean", "setting": "C57BL/6 mice; PW164 0.07mg/mL, Time (h) 1", "value": 0},
      {"measurement": "HVF Mean", "setting": "C57BL/6 mice; PW164 0.07mg/mL, Time (h) 1.5", "value": 50},
      {"measurement": "LVF Mean", "setting": "C57BL/6 mice; PW164 0.07mg/mL, Time (h) 1.5", "value": 0},
      {"measurement": "HVF Mean", "setting": "C57BL/6 mice; PW164 0.07mg/mL, Time (h) 2", "value": 50},
      {"measurement": "LVF Mean", "setting": "C57BL/6 mice; PW164 0.07mg/mL, Time (h) 2", "value": 0},
      {"measurement": "HVF Mean", "setting": "C57BL/6 mice; PW164 0.21 mg/mL, Time (h) 0", "value": 53.3333},
      {"measurement": "LVF Mean", "setting": "C57BL/6 mice; PW164 0.21 mg/mL, Time (h) 0", "value": 0},
      {"measurement": "HVF Mean", "setting": "C57BL/6 mice; PW164 0.21 mg/mL, Time (h) 0.5", "value": 50},
      {"measurement": "LVF Mean", "setting": "C57BL/6 mice; PW164 0.21 mg/mL, Time (h) 0.5", "value": 0},
      {"measurement": "HVF Mean", "setting": "C57BL/6 mice; PW164 0.21 mg/mL, Time (h) 1", "value": 50},
      {"measurement": "LVF Mean", "setting": "C57BL/6 mice; PW164 0.21 mg/mL, Time (h) 1", "value": 0},
      {"measurement": "HVF Mean", "setting": "C57BL/6 mice; PW164 0.21 mg/mL, Time (h) 1.5", "value": 53.3333},
      {"measurement": "LVF Mean", "setting": "C57BL/6 mice; PW164 0.21 mg/mL, Time (h) 1.5", "value": 0},
      {"measurement": "HVF Mean", "setting": "C57BL/6 mice; PW164 0.21 mg/mL, Time (h) 2", "value": 50},
      {"measurement": "LVF Mean", "setting": "C57BL/6 mice; PW164 0.21 mg/mL, Time (h) 2", "value": 3.333},
      {"measurement": "HVF Mean", "setting": "C57BL/6 mice; PW164 0.7 mg/mL, Time (h) 0", "value": 53.3333},
      {"measurement": "LVF Mean", "setting": "C57BL/6 mice; PW164 0.7 mg/mL, Time (h) 0", "value": 0},
      {"measurement": "HVF Mean", "setting": "C57BL/6 mice; PW164 0.7 mg/mL, Time (h) 0.5", "value": 50},
      {"measurement": "LVF Mean", "setting": "C57BL/6 mice; PW164 0.7 mg/mL, Time (h) 0.5", "value": 0},
      {"measurement": "HVF Mean", "setting": "C57BL/6 mice; PW164 0.7 mg/mL, Time (h) 1", "value": 56.6667},
      {"measurement": "LVF Mean", "setting": "C57BL/6 mice; PW164 0.7 mg/mL, Time (h) 1", "value": 0},
      {"measurement": "HVF Mean", "setting": "C57BL/6 mice; PW164 0.7 mg/mL, Time (h) 1.5", "value": 53.3333},
      {"measurement": "LVF Mean", "setting": "C57BL/6 mice; PW164 0.7 mg/mL, Time (h) 1.5", "value": 3.333},
      {"measurement": "HVF Mean", "setting": "C57BL/6 mice; PW164 0.7 mg/mL, Time (h) 2", "value": 56.6667},
      {"measurement": "LVF Mean", "setting": "C57BL/6 mice; PW164 0.7 mg/mL, Time (h) 2", "value": 0},
      {"measurement": "paw withdrawal to LVF/HVF stimulation, normal sensitivity", "setting": "C57BL/6 mice; WT mice, i.pl. 5 μL, doses tested", "value": "did not affect paw withdrawal"},
      {"measurement": "action potential firing", "setting": "[1]; [2]", "value": "reduced action potential firing"},
      {"measurement": "rheobase to fire an action potential", "setting": "[1]; [2]", "value": "increased rheobase"},
      {"measurement": "Suppl Fig. S16A, 1x", "setting": "[1]; single cells", "value": 1}
    ]},
    {"molecule": "CC(=O)N[C@@H](Cc1ccccc1)C(=O)N[C@@H](CC(C)C)C(=O)N1CCC[C@H]1C(=O)N[C@@H](CCCCN)C(=O)Nc1ccccc1", "note": "[ZL192] (Ac-FLPK-NHPh)", "values": [
      {"measurement": "mechanical hypersensitivity in AAV2-shFGF13 mice", "setting": "C57BL/6 mice; ZL192 0.18 mg/mL, i.pl.", "value": "absent"},
      {"measurement": "mechanical sensitivity in AAV2-shCTRL mice", "setting": "C57BL/6 mice; ZL192 0.18 mg/mL, i.pl.", "value": "caused mechanical and thermal hypersensitivity"},
      {"measurement": "duration of increased mechanical response", "setting": "C57BL/6 mice; naive WT mice, ZL192 i.pl. 0.06 or 0.18 mg/mL", "value": "up to 2 hours"},
      {"measurement": "response to LVF and HVF stimulation", "setting": "C57BL/6 mice; naive WT mice, ZL192 i.pl. 5 μL, 0.06 or 0.18 mg/mL, vs vehicle", "value": "increased the response"},
      {"measurement": "rheobase to fire an action potential", "setting": "[1]; [2]", "value": "decreased rheobase"},
      {"measurement": "Suppl Fig. S16A, 1x", "setting": "[1]; single cells", "value": 1},
      {"measurement": "Suppl Fig. S16A, 3x", "setting": "[1]; 3x, single cells", "value": "2 and 1"}
    ]}
  ]
}
